Assay results published in PMC2673050 (Journal of medicinal chemistry, 2009).

How the values were obtained:
[1] = Cytotoxicity testing; format: cell-based; conditions: human, MCF7 breast cells
[2] = biological target: T1, aromatase (CYP19A1) (Homo sapiens, UniProt P11511); assay: Aromatase inhibition assay; format: biochemical
T1 sequence (P11511 1-503): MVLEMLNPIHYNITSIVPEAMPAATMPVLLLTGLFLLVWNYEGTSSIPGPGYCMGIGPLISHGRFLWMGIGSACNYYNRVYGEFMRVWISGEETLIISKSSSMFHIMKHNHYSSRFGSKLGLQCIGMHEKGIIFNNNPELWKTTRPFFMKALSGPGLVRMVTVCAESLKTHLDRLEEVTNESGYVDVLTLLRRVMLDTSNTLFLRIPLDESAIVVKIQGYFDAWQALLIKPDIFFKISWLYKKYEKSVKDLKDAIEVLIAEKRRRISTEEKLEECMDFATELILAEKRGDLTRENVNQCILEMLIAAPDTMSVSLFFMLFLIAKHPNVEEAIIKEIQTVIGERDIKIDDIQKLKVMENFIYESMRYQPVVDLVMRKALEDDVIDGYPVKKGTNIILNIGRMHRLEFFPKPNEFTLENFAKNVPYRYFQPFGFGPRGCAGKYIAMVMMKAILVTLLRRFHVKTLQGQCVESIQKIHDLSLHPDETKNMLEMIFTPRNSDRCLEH

[3] = Cytotoxicity testing; format: cell-based; conditions: human, LU lung cancer cells
[4] = biological target: T2, Human QR2 (Homo sapiens, UniProt P16083); assay: QR2 inhibition assay; format: biochemical; conditions: for Increase in QR2 inhibitory potency relative to compound 1: relative to natural product 1
T2 sequence (P16083 1-231): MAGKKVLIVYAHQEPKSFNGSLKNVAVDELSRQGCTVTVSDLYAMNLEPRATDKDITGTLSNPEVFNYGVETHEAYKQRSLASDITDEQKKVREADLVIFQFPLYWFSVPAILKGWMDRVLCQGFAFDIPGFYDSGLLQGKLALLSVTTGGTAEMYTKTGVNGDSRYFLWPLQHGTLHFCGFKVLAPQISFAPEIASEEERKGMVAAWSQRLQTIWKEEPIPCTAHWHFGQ

[5] = tested on: four different cell lines; assay: Cytotoxicity, overall statement for four cell lines; format: cell-based
[6] = tested on: mouse mammary gland organ culture (MMOC); conditions: cited from earlier work
[7] = tested on: Salmonella typhimurium strain TM677; conditions: S. typhimurium TM677; cited from earlier work

Aromatase inhibitory activity (in words) [2] | SMILES | IC50 at 72 h [1] | IC50 at 72 h [3] | also measured
submicromolar range | COc1cc(OC)c2c(c1)c(C)cc(=O)n2C [1j, 6,8-Dimethoxy-1,4-dimethylquinolin-2(1H)-one] | > 85.8 µM | > 85.8 µM | –
submicromolar range | COc1c(OC)c(OC)c2c(c(C)cc(=O)n2C)c1OC [1r, 5,6,7,8-Tetramethoxy-1,4-dimethylquinolin-2(1H)-one] | > 68.2 µM | > 68.2 µM | QR2 inhibitory activity (in words) [4]: completely inactive
inactive | Cc1cc(=O)n(C)c2ccccc12 [1d, 1,4-Dimethylquinolin-2(1H)-one] | > 116 µM | > 116 µM | Increase in QR2 inhibitory potency relative to compound 1 [4]: approximately 3 fold
not active | COc1cccc2c(C)cc(=O)[nH]c12 [1e, 8-Methoxy-4-methylquinolin-2(1H)-one] | > 106 µM | > 106 µM | –
submicromolar range | COc1ccc(OC)c2c1c(C)cc(=O)n2C [1l, 5,8-Dimethoxy-1,4-dimethylquinolin-2(1H)-one] | > 85.7 µM | > 85.7 µM | Increase in QR2 inhibitory potency relative to compound 1 [4]: 10 fold

The remaining lines, values behind:

SMILES | Aromatase inhibitory activity (in words) [2] | IC50 at 72 h [1] | IC50 at 72 h [3] | also measured
COc1cccc2c(C)cc(=O)n(C)c12 [1f, 8-Methoxy-1,4-dimethylquinolin-2(1H)-one] | – | > 98.5 µM | > 98.5 µM | Increase in QR2 inhibitory potency relative to compound 1 [4]: approximately 10 fold
Cc1cc(=O)[nH]c2c3c(ccc12)OCO3 [1a, 6-Methyl-[1,3]dioxolo[4,5-h]quinolin-8(9H)-one] | – | > 98.5 µM | > 98.5 µM | –
COc1cc2c(C)cc(=O)n(C)c2c(OC)c1OC [1n, 6,7,8-Trimethoxy-1,4-dimethylquinolin-2(1H)-one] | – | > 76 µM | > 76 µM | –
COc1c(OC)c(OC)c2c(C)cc(=O)[nH]c2c1OC [1q, 5,6,7,8-Tetramethoxy-4-methylquinolin-2(1H)-one] | – | > 71.7 µM | > 71.7 µM | QR2 inhibitory activity (in words) [4]: completely inactive
Cc1cc(=O)n(C)c2c1C(=O)C=CC2=O [compound 12] | – | – | – | Cytotoxicity (in words) [5]: low degree of cytotoxicity
COc1ccc2c(C)cc(=O)[nH]c2c1OC [1g, 7,8-Dimethoxy-4-methylquinolin-2(1H)-one] | – | > 91.3 µM | > 91.3 µM | –
COc1cc(OC)c2[nH]c(=O)cc(C)c2c1 [1i, 6,8-Dimethoxy-4-methylquinolin-2(1H)-one] | inactive | > 91.3 µM | > 91.3 µM | –
Cc1cc(=O)n(C)c2c3c(ccc12)OCO3 [1b, 6,9-Dimethyl-[1,3]dioxolo[4,5-h]quinolin-8(9H)-one] | – | > 92.1 µM | > 92.1 µM | Increase in QR2 inhibitory potency relative to compound 1 [4]: more than 8 fold
COc1ccc(OC)c2c(C)cc(=O)[nH]c12 [1k, 5,8-Dimethoxy-4-methylquinolin-2(1H)-one] | – | > 91.2 µM | > 91.2 µM | –
COc1ccc2c(C)cc(=O)n(C)c2c1OC [1h, 7,8-Dimethoxy-1,4-dimethylquinolin-2(1H)-one] | – | > 85.8 µM | > 85.8 µM | –
COc1cc(OC)c2c(c(C)cc(=O)n2C)c1OC [1p, 5,6,8-Trimethoxy-1,4-dimethylquinolin-2(1H)-one] | – | > 76 µM | – | Cytotoxicity (in words) [5]: low degree of cytotoxicity
COc1cc(OC)c2[nH]c(=O)cc(C)c2c1OC [1o, 5,6,8-Trimethoxy-4-methylquinolin-2(1H)-one] | – | – | – | Cytotoxicity (in words) [5]: low degree of cytotoxicity
COc1cc(=O)n(C)c2c3c(ccc12)OCO3 [compound 1, 6-Methoxy-9-methyl-[1,3]dioxolo[4,5-h]quinolin-8(9H)-one] | – | > 85.8 µM | > 85.8 µM | Inhibition of formation of DMBA-induced preneoplastic lesions [6]: inhibition of the formation of DMBA-induced preneoplastic lesions; Inhibition of mutagenicity induced by 7,12-dimethylbenz[a]anthracene (DMBA) [7]: inhibit mutagenicity
Cc1cc(=O)[nH]c2ccccc12 [1c, 4-Methylquinolin-2(1H)-one] | inactive | > 126 µM | > 126 µM | QR2 inhibitory activity (in words) [4]: inactive
COc1cc2c(C)cc(=O)[nH]c2c(OC)c1OC [1m, 6,7,8-Trimethoxy-4-methylquinolin-2(1H)-one] | – | > 80.3 µM | > 80.3 µM | –
